Key:
Reh = test: MTT tumor cell proliferation, Reh; assay type: cell-based; details: Homo sapiens, Acute lymphocytic leukemia, 72 hour
Protocol: (§1) as an exemplary compound of formula (I), was tested for its inhibitory effect on tumor cell proliferation in a MTT assay.
(§2) Briefly, cells at the log phase were collected, suspended in the cell culture medium at 4*10^4/ml density, and plated in 96-well plates, 90 μl per well. The plates were kept in a 5% CO2 and 37° C. incubator for 2 hours, and then added with 100 μg/ml, 10 μg/ml, 1 μg/ml, 0.1 μg/ml, 0.01 μg/ml or 0.001 μg/ml Compound A, 4 replicates for each cell at each compound concentration. DMSO was used in the positive control group, and another negative group was also set. After 72 hour incubation in the same incubator, 20 μl 5 mg/ml MTT reagent was added to each well. After another 4 hour incubation, each well was added with 100 μl SDS and further incubated for 12 hours. Absorbance at 570 nm was read in a reader, and IC50 was calculated.

KDR (VEGFR-2) = KDR (VEGFR-2) (Homo sapiens, UniProt P35968); test: Inhibition of KDR phosphorylation; assay type: biochemical
From the text: (§3) FLT3 is a class III receptor tyrosine kinase and plays an important role in hematopoiesis and lymphocyte development. […] Wang et al found over 60% of 82 leukemia cell lines were FLT3 positive (Wang Y et al., (2006) Journal of Experimental Hematology 14(3): 446-449). FLT3-internal tandem duplication (ITD) is the most commonly seen mutation in AML patients, with about 17-34% of AML patients carrying such a mutation (Jia H et al., (2018) Medical Laboratory Science and Clinics 19(5): 39). […] Thus, the compounds of the disclosure with high inhibitory effect on FLT3 function may be good candidates for leukemia treatment.

SGC-7901 = test: MTT tumor cell proliferation, SGC-7901; assay type: cell-based; details: Homo sapiens; SGC-7901, Gastric cancer, 72 hour
Protocol: as §1, §2

PI3K γ isoform = PI3K γ isoform (Homo sapiens, UniProt P48736); test: PI3K γ isoform inhibition; details: one of the other three isoforms
PI3K γ isoform, sequence (P48736 whole entry, canonical isoform): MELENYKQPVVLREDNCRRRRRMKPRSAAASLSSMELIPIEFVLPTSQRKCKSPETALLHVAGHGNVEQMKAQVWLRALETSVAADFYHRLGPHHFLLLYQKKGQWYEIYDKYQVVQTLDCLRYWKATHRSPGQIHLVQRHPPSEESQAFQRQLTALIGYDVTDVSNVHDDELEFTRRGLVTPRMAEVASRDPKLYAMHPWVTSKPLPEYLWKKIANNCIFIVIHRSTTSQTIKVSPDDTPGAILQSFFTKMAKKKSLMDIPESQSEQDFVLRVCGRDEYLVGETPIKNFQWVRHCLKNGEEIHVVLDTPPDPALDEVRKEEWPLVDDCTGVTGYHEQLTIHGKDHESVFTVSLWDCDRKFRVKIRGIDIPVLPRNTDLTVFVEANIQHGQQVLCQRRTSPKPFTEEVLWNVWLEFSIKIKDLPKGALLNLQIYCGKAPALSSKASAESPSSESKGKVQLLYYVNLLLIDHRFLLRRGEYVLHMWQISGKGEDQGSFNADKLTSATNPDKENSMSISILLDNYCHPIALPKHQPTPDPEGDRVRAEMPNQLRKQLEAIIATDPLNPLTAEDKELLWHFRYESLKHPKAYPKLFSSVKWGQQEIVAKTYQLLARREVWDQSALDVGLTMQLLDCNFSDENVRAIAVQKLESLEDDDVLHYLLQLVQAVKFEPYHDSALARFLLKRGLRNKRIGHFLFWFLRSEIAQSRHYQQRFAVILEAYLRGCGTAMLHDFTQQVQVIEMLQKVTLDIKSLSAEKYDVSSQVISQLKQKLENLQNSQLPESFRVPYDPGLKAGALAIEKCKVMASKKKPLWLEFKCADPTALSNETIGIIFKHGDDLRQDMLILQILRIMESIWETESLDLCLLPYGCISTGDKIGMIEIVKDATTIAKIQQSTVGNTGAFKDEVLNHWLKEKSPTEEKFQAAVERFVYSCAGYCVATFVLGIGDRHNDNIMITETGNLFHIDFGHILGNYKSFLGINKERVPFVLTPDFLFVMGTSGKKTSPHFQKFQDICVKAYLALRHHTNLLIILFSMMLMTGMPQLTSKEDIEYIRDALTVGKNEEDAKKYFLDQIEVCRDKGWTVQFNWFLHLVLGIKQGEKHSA

Ls-174t = test: MTT tumor cell proliferation, Ls-174t; assay type: cell-based; details: Homo sapiens, LS174T, Colon cancer, 72 hour
Protocol: as §1, §2

SK-BR-3 = test: MTT tumor cell proliferation, SK-BR-3; assay type: cell-based; details: Homo sapiens; SK-BR-3, Breast cancer, 72 hour
Protocol: as §1, §2

AKT = test: Inhibition of AKT phosphorylation; assay type: biochemical
From the text: as §3

K562 = test: MTT tumor cell proliferation, K562; assay type: cell-based; details: Homo sapiens; K562, Chronic myeloid leukemia, 72 hour
Protocol: as §1, §2

H526 = test: Tumor cell death by MTT, H526; assay type: cell-based, human; details: 20 nM
Protocol: (§4) The in vitro inhibitory effect of Compound A alone or in combination with a PARP inhibitor on tumor cell growth was tested using human small cell lung cancer (SCLC) cell lines, including H69 (ATCC® HTB-119™), H526 (ATCC® CRL-5811™) and H446 (TCHu196, National Collection of Authenticated Cell Cultures).
(§5) Briefly, the cells were seeded into a 96-well dish with RPMI-1640 (10-040-CV, Coming cellgro) containing 10% fetal bovine serum (10270-106, GIBCO), 1% penicillin and 1% streptomycin (BaSalMedia, S110JV), at an initial density of 3×10^3 cells per well ([…]), and cultured at a 37° C., 5% CO2 humidified incubator for 24 hours. Then, the culture media were added with Compound A (final concentration at 20 nM), olaparib (APEXBIO, A4154, a PARP inhibitor, final concentration at 10 μM), Compound A + olaparib (final concentrations at20 nM and 10 μM), or PBS (vehicle), respectively, and the cells were cultured for 48 hours. Then, cell viability was determined by MTT. The test was done in triplicate.
(§6) Cell death rate was calculated by the following formula.
(§7) Cell death rate=[1−(ODtest-ODvehicle)]×100%
(§8) Cell death rates were analyzed using student's t-test, and group differences were deemed statistically significant when the p-value was lower than 0.05. Zheng-Jun Jin's Q value was calculated using the formula Q=EA+B/(EA+EB-EA×EB) to assess the combined effect of Compound A and the PARP inhibitor, wherein EA+B, EA, and EB referred to the cell death rates caused by the combined treatment, Compound A treatment and PARP inhibitor treatment, respectively. A Q value higher than 1.15 meant a synergistic […] effect.
(§9) Another PARP inhibitor, rucaparib (APEXBIO, A4156), was tested alone or with Compound A for inhibitory effect on tumor cell growth, following the protocol of Example 9.

H446 = test: Tumor cell death by MTT, H446; assay type: cell-based, human; details: 20 nM
Protocol: as §4, §5, §6, §7, §8, §9

FLT3 = FLT3 (Homo sapiens, UniProt P36888); test: Inhibition of FLT3 phosphorylation; assay type: biochemical
FLT3, sequence (P36888 27-993, species assumed): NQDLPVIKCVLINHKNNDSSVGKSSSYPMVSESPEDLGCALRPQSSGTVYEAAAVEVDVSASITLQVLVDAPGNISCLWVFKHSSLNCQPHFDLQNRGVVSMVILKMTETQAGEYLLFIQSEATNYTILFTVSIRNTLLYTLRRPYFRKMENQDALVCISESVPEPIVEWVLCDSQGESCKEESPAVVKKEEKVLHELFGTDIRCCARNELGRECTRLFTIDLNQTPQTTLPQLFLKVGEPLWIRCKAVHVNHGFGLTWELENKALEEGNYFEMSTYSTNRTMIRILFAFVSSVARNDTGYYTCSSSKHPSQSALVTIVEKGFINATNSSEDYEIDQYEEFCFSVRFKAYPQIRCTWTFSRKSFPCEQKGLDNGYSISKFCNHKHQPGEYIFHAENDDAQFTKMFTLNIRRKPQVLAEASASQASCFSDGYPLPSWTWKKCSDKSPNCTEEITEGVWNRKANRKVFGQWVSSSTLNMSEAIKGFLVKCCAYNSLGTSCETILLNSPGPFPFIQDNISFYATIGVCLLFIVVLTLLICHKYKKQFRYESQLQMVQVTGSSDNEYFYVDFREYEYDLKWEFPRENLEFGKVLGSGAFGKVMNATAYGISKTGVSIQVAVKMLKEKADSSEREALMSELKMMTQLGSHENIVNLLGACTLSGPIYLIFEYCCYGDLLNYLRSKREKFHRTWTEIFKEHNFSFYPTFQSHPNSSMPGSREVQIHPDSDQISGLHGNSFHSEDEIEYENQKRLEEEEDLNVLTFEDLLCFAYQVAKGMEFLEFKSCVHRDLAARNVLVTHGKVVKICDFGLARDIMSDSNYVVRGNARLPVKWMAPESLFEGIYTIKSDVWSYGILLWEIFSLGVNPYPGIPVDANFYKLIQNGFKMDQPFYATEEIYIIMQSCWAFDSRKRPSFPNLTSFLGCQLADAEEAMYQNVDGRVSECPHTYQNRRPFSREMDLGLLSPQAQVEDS
From the text: as §3

PI3K α isoform = PI3K α isoform (Homo sapiens, UniProt P42336); details: one of the other three isoforms
PI3K α isoform, sequence (P42336 whole entry, canonical isoform): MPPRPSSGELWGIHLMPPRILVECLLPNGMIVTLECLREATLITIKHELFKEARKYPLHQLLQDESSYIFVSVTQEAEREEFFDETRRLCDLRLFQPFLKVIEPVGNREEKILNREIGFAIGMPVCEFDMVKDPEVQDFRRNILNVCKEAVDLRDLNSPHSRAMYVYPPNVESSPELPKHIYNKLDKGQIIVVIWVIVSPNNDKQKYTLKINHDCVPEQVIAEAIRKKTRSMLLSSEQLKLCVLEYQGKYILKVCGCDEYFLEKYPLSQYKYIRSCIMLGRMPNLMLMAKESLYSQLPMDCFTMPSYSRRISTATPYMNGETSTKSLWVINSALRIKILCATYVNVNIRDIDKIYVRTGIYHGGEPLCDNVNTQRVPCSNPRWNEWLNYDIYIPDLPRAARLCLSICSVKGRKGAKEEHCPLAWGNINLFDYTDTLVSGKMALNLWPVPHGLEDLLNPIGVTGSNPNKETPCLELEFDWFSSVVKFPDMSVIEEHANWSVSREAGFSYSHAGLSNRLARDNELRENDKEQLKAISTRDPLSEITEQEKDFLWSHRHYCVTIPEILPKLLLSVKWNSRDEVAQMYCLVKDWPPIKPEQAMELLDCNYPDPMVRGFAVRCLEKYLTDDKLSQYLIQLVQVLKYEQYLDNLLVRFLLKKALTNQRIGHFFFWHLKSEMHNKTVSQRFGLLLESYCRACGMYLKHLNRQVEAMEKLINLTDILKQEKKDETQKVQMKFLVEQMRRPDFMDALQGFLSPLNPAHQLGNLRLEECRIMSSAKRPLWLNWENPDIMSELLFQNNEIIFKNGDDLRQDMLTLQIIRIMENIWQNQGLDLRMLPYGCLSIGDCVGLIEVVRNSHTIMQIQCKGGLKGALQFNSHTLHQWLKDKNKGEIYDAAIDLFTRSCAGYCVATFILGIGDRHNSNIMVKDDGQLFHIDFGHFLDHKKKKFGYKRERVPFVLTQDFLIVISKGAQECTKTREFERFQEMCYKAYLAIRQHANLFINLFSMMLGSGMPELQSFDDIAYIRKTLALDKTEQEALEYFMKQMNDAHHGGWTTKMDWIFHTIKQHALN
PI3K α isoform, sequence (P27986 whole entry partner, canonical isoform): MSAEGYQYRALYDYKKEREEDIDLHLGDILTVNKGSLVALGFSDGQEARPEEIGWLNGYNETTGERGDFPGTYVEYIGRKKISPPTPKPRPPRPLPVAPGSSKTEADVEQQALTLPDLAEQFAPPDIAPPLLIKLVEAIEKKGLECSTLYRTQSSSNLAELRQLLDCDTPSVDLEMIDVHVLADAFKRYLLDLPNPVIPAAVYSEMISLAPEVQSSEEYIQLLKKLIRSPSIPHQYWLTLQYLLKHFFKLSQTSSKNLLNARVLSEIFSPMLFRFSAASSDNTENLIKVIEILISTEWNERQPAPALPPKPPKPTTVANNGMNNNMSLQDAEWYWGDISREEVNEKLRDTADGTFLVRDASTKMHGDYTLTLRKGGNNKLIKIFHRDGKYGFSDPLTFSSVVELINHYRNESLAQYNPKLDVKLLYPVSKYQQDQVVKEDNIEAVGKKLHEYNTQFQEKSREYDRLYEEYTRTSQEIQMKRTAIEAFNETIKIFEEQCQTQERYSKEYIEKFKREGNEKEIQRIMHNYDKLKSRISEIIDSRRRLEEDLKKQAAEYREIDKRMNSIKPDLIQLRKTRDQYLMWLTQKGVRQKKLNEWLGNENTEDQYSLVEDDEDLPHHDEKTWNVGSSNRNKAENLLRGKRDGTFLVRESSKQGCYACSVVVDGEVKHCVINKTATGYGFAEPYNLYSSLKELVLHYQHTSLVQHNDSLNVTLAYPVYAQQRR

PDGFR = test: Inhibition of PDGFR phosphorylation; assay type: biochemical
From the text: as §3

PI3K δ isoform = PI3K δ isoform (Homo sapiens, UniProt O00329); test: biochemical
PI3K δ isoform, sequence (O00329 whole entry, canonical isoform): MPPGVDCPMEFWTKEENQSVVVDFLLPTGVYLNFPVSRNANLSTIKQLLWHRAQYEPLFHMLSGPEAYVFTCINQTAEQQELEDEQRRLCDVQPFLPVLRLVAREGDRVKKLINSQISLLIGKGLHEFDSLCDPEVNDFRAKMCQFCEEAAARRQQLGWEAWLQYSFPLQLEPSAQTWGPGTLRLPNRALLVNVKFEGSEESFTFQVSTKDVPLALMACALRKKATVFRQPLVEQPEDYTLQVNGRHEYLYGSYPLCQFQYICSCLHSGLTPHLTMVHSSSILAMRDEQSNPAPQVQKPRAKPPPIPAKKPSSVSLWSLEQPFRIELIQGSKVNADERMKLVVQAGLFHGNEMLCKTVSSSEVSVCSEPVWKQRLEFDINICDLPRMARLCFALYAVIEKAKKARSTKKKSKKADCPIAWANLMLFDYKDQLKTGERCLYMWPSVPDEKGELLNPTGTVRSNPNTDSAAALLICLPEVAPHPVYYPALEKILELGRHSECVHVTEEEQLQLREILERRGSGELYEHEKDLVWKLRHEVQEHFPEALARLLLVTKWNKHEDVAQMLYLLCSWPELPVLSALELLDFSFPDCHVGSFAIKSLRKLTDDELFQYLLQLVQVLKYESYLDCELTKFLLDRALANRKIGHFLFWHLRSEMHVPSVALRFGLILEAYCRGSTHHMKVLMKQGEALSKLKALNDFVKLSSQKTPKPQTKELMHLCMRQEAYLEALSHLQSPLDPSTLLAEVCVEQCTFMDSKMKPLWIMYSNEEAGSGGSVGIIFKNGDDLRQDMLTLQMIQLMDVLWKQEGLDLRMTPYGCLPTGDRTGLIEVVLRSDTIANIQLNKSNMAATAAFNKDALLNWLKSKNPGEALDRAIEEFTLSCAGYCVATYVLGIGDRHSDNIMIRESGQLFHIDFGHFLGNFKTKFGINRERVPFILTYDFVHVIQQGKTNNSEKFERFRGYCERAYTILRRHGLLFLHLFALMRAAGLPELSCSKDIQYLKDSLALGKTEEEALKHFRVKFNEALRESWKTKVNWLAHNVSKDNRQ
PI3K δ isoform, sequence (P27986 whole entry partner, canonical isoform): as the sequence (P27986 whole entry partner, canonical isoform) above

HT-29 = test: MTT tumor cell proliferation, HT-29; assay type: cell-based; details: Homo sapiens; HT-29, Colon cancer, 72 hour
Protocol: as §1, §2

A549 = test: MTT tumor cell proliferation, A549; assay type: cell-based; details: Homo sapiens; A549, Lung cancer, 72 hour
Protocol: as §1, §2

MDA-MB-231 = test: MTT tumor cell proliferation, MDA-MB-231; assay type: cell-based; details: Homo sapiens; MDA-MB-231, Breast cancer, 72 hour
Protocol: as §1, §2

solid cancer cell lines = test: MTT tumor cell proliferation, solid cancer cell lines (summary); assay type: cell-based; details: summary of Table 2
Protocol: as §1, §2

c1cnc2ccc(Nc3nc(NC4CC4)c4nc[nH]c4n3)cc2c1 [Compound A]
IC50 (Reh): 0.8 ± 0.1 µM | EC50 (KDR (VEGFR-2)): ~1 µM | IC50 (SGC-7901): 3.8 ± 0.6 µM | EC50, PI3K γ isoform (PI3K γ isoform): at the μM level | IC50 (Ls-174t): 5.9 ± 0.9 µM | IC50 (SK-BR-3): 16.5 ± 0.9 µM | EC50 (AKT): ~0.1 µM | IC50 (K562): 1.2 ± 0.1 µM | Cell Death Rate/% 1 (H526; 48 hours, Table 10): 10.5% | Cell Death Rate/% 2 (H526; 48 hours, Table 10): 9.87% | Cell Death Rate/% 3 (H526; 48 hours, Table 10): 10.95% | Cell Death Rate/% mean (H526; 48 hours, Table 10): 10.44% | Cell Death Rate/% 1 (H526; Example 10, Table 11): 8.29% | Cell Death Rate/% 2 (H526; Example 10, Table 11): 8.39% | Cell Death Rate/% 3 (H526; Example 10, Table 11): 8.64% | Cell Death Rate/% mean (H526; Example 10, Table 11): 8.44% | Cell Death Rate/% 1 (H446; 48 hours, Table 10): 13.5% | Cell Death Rate/% 2 (H446; 48 hours, Table 10): 13.18% | Cell Death Rate/% 3 (H446; 48 hours, Table 10): 13.67% | Cell Death Rate/% mean (H446; 48 hours, Table 10): 13.45% | Cell Death Rate/% 1 (H446; Example 10, Table 11): 15% | Cell Death Rate/% 2 (H446; Example 10, Table 11): 14.62% | Cell Death Rate/% 3 (H446; Example 10, Table 11): 15.17% | Cell Death Rate/% mean (H446; Example 10, Table 11): 14.93% | EC50 (FLT3): ~0.049 µM | EC50, PI3K α isoform (PI3K α isoform): at the μM level | EC50 (PDGFR): ~1 µM | EC50 (PI3K δ isoform): ~0.09 µM | IC50 (HT-29): 6.1 ± 0.2 µM | IC50 (A549): 2.3 ± 0.8 µM | IC50 (MDA-MB-231): 3.5 ± 0.1 µM | IC50 (solid cancer cell lines): ≥ 2.3 µM
